Test results taken from patent US5376681A, “Aminocoumaran derivatives, their production and use” (Takeda Chemical Industries, Ltd., priority 1990, dated 1994).

Test system: behavior induced by spinal intrathecal injection of FeCl2 in mice
Assay: Effect of drugs on the change of the behavior induced by spinal intrathecal injection of FeCl2 in mice (Experiment 1)
Type: in vivo, mice (male Slc: ICR)
Conditions: oral, 30 minutes prior to ferrous chloride injection; for % inhibition: 100 mg/kg, calculated from mean scores vs saline; for Mean Score Administration of Test Compound of 100 mg/kg: behavioral score 0 (normal) to 5 (death), 10 mice per group
Procedure: Effect of drugs on the change of the behavior induced by spinal intrathecal injection of FeCl2 in mice
Male Slc: ICR mice (5 weeks) (10 mice per group) were used. Saline (5 μl/mouse) containing 50 mM FeCl2 was injected into the subarachnoid space between the 6th lumbar segment and the 1st sacral and scored as follows.
Percent inhibitions were calculated based on the scores evaluated above. The test compounds were orally administered 30 minutes prior no ferrous chloride injection. […]

Structure (SMILES): Cc1c(C)c2c(c(C)c1N)CC(C)(C)O2 [Example 103, 5-Amino-2,2,4,6,7-pentamethyl-2,3-dihydrobenzofuran]
- % inhibition: 98.0%
- Mean Score Administration of Test Compound of 100 mg/kg: 0.1

Structure (SMILES): Cc1c(C)c2c(c(C)c1N)CC(C)(CCc1ccccc1)O2 (stereo not shown) [Example 84, 5-Amino-2,4,6,7-tetramethyl-2-(2-phenylethyl)-2,3-dihydrobenzofuran]
- % inhibition: 89.1%
- Mean Score Administration of Test Compound of 100 mg/kg: 0.5

Structure (SMILES): CCNc1c(C)c(C)c2c(c1C)CC(C)(CCc1ccc(F)cc1)O2 (stereo not shown) [Example 47, 5-Ethylamino-2-[2-(4-fluorophenyl)ethyl]-2,4,6,7-tetramethyl-2,3-dihydrobenzofuran]
- % inhibition: 79.6%
- Mean Score Administration of Test Compound of 100 mg/kg: 1.0

Structure (SMILES): Cc1c(C)c2c(c(C)c1N)CC(C)(CCc1ccc(F)cc1)O2 (stereo not shown) [Example 85, 5-Amino-2,4,6,7-tetramethyl-2-[2-(4-fluorophenyl)ethyl]-2,3-dihydrobenzofuran]
- % inhibition: 87.0%
- Mean Score Administration of Test Compound of 100 mg/kg: 0.6

Structure (SMILES): Cc1c(C)c2c(c(C)c1N)CC(C)(Cc1ccccc1)O2 (stereo not shown) [Example 1, 5-Amino-2-benzyl-2,4,6,7-tetramethyl-2,3-dihydrobenzofuran]
- % inhibition: 73.9%
- Mean Score Administration of Test Compound of 100 mg/kg: 1.2
